Experimental data published in patent publication US8940885B2, “Cytotoxic nucleotides for targeted therapeutics” (Wake Forest University Health Sciences, priority 2006, dated 2015).

Legend:
[1] = UV thermal melt (hyperchromicity); format: physicochemical
Protocol: The structural characteristics of the parent aptamer and modified aptamers were determined using circular dichroism (CD) spectroscopy and ultraviolet (UV) hyperchromicity measurements. The data for the CD spectroscopy are shown in FIGS. 4A (modified aptamer) and 4B (parent aptamer). The circular dichroism curve acquired before thermal melting is in blue and that obtained post-melt is green. A maximum positive ellipticity is observed at 270 nm consistent with a highly folded structure, probably consisting of A-form helices. The circular dichroism spectra for the modified aptamers are indistinguishable from circular dichroism spectra for the parent aptamer. The UV thermal melt data is shown in FIGS. 4C (modified aptamer) and 4D (parent aptamer). The melting temperature for parent aptamer and the modified aptamers is about 55° C.

[2] = target: T1, extracellular domain of PSMA (xPSM) (Homo sapiens, UniProt Q04609); conditions: cited from earlier work
T1 construct: express the 706 amino acids comprising the extracellular domain of PSMA from Sf-9 (insect) cells using baculovirus; made in house; host or cells: Sf-9 insect cells, baculovirus (pBacGus3 vector); cDNA from LNCaP cells
T1 sequence (Q04609 44-750 limits assumed): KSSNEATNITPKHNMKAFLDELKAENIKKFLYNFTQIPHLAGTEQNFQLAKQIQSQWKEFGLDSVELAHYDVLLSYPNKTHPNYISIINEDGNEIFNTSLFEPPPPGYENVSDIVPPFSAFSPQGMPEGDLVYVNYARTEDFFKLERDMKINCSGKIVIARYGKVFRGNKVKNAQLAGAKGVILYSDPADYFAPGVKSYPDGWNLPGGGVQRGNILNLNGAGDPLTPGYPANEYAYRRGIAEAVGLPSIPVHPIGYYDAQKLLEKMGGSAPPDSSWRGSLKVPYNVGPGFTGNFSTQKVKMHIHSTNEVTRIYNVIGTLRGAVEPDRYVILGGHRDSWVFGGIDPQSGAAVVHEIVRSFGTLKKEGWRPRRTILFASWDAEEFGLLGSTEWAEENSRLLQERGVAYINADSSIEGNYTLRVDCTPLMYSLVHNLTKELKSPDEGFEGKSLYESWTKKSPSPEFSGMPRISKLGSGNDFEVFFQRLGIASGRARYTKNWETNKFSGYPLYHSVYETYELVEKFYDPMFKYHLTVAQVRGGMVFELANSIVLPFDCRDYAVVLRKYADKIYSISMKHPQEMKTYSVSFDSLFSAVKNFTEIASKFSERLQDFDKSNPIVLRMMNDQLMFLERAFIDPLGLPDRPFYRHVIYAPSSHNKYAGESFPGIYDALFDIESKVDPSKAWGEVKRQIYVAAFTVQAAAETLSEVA

DU145 PC cells = test: Cytotoxicity of FdUMP[10], laboratory studies and NCI 60 cell line screen; format: cell-based
PC3 cells = test: as above; format: cell-based, human
LNCaP cells = test: as above; format: cell-based, human
colon cancer cells = test: Uptake of FdUMP[10] multimer in other cancer cells; format: cell-based; conditions: other types of cancer cells (e.g. colon cancer)
[3] = test system: PC cells and normal prostatic epithelial cells; test: Trypan blue exclusion assays; format: cell-based, human
Protocol: The cytotoxicity of the candidate modified aptamers is also evaluated with regard to prostate cells that have been obtained from normal prostate tissue derived from radical prostatectomies. A procedure for establishing primary human epithelial cell cultures from the disease-free regions of the tissue (based on histology) has been described (Peehl et al., In Vitro Cell Dev. Biol. 22: 90 (1986); Peehl et al., In Vitro Cell Dev. Biol. 24: 530-536 (1988); Barreto et al., Cancer Epidemiol. Biomarkers Prey. 9: 265-270 (2000). The cultures are grown in MCDB 105 medium (Sigma, St. Louis, Mo.) that has been supplemented with growth factors and hormones as described previously (Peehl et al., In Vitro Cell Dev Biol 22: 90 (1986)). Trypan blue exclusion is used as a marker of viable cells. The data are analyzed to identify those candidate modified aptamers sequences that are highly efficient at killing PC cells that express xPSM, but that are not cytotoxic towards normal prostate cells. Candidate modified aptamers that display the greatest differential cytotoxicity are further developed as drugs for the treatment of human PC.
(but not 5FU) is currently under investigation.

prostate cancer cells [4] = test system: prostate cancer cells
[5] = test system: DU145 prostate cancer cells
[6] = test system: PC3 prostate cancer cells
prostate cancer cells [7] = test system: prostate cancer cells; remark: listed apart in the source

Row | Substance | stability of folded structure ([1]; 37° C.) | melting temperature ([1]; UV thermal melt) | binding affinity for xPSM [2] | times more potent than 5FU (DU145 PC cells; DU145 PC cells) | GI50 (DU145 PC cells; DU145 cells, GI50 value from the NCI 60 cell line screen, read-out: IC50 (the source's name)) | sensitivity of PC3 cells (PC3 cells) | times more potent than 5FU (PC3 cells; PC3 cells) | sensitivity of LNCaP cells (LNCaP cells) | uptake of multimer relative to prostate cancer cells (colon cancer cells) | differential sensitivity between PC cells and normal prostatic epithelial cells [3] | cytotoxicity relative to 5FU or FdU (prostate cancer cells [4]) | drug concentrations at which cytotoxic towards prostate cancer cells (prostate cancer cells [4]) | cytotoxicity relative to monomeric fluoropyrimidines (5FU, FdU, FdUMP) [5] | cytotoxicity relative to monomeric fluoropyrimidines (5FU, FdU, FdUMP) [6] | effect of phosphatase or nucleotidase inhibitor on cytotoxicity (prostate cancer cells [7]) | uptake in multimeric form (prostate cancer cells [7]; prostate cancer cells) | tolerability in vivo
1 | 5′rGGGAGGACGAUGCGGAUCAGCCAUGUUUACGUCAC UCCUUGUCAAUCCUCAUCGGC-3′ (GGGAGGACGAUGCGGAUCAGCCAUGUUUACGUCACUCCUUGUCAAUCCUCAUCGGC; RNA, backbone not given here) [A10-3] | stable at 37 °C | about 55 °C | high affinity | – | – | – | – | – | – | – | – | – | – | – | – | – | –
2 | FdUMP[10] | – | – | – | 1,585 time | 5.01 nM | highly sensitive | 631 times | highly sensitive | less efficient | large differential sensitivity | substantially more cytotoxic | 0.01 to 0.1 µM | substantially more cytotoxic | substantially more cytotoxic | Neither inhibitor substantially reduced the cytotoxicity | efficiently take up | very well-tolerated
